We go through 15 molecules from patent publication US8586611B2 (priority 2005, dated 2013).

Common to all, as to format: in vivo
The subject of assay [1] is Erysiphe graminis f. sp. tritici. As to the kind of experiment: Test E: wheat powdery mildew, spray the day before inoculation (disease rating, 100 = 100% disease control). Conditions: spray the day before inoculation. Put shortly: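 Protective test: spores of E. graminis f. sp. tritici dusted on wheat seedlings one day after run-off spraying of test suspension (acetone/water with 250 ppm surfactant; 200 ppm = 500 g/ha). Ratings after 7 days in growth chamber at 20° C, 100 = full control, 0 = none, relative to controls.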

In the next assay the test system is Plasmopara viticola. Nature of the assay: Test B: grape downy mildew, spray 24 h after inoculation (disease rating, 100 = 100% disease control). The settings on record: spray 24 h after inoculation. Put shortly: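 This is a curative spray test, applied 24 h after inoculation. Compounds in 50/50 acetone–water with 250 ppm Trem 014 surfactant were sprayed to run-off on P. viticola-infected seedlings, with 200 ppm equating to 500 g/ha. Plants were kept 5 days in a 20 °C growth chamber, then 24 h humid, and scored 0–100 for disease control relative to controls.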

Assay [2] deals with Pseudoperonospora cubensis. As to the kind of experiment: Test A: cucumber downy mildew, spray the day before inoculation (disease rating, 100 = 100% disease control). The settings on record: spray the day before inoculation, compounds without asterisk (not 40 or 10 ppm). The text has this: The test compounds were first dissolved in acetone in an amount equal to 3% of the final volume and then suspended at the desired concentration (in ppm) in acetone and purified water (50/50 mix by volume) containing 250 ppm of the surfactant Trem® 014 (polyhydric alcohol esters). The resulting test suspensions were then used in tests A-E. Spraying a 200 ppm test suspension to the point of run-off on the test plants was the equivalent of a rate of 500 g/ha.
The test suspension was sprayed to the point of run-off on cucumber seedlings. The following day the seedlings were inoculated with a spore suspension of Pseudoperonospora cubensis (the causal agent of cucumber downy mildew) and incubated in a saturated atmosphere at 20° C. for 24 h, and then moved to a growth chamber at 20° C. for 6 days, after which disease ratings were made.
Results for Tests A-F are given in Table A. In the table, a rating of 100 indicates 100% disease control and a rating of 0 indicates no disease control (relative to the controls). A dash (-) indicates no test results.

Assay [3] concerns Pseudoperonospora cubensis. Nature of the assay: Test F: cucumber downy mildew, DMSO/acetone/water test suspension, spray the day before inoculation (disease rating, 100 = 100% disease control). Conditions: DMSO/acetone/water suspension, spray the day before inoculation, compounds without asterisk. The procedure, abridged:
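Cucumber seedlings inoculated with spores one day after spraying with the test suspension (4% DMSO in acetone/water 30/70; 250 ppm ≈ 250 g/ha). Kept 24 h in saturated air, then 6 days in a growth chamber, both at 20° C. Scored as % disease control versus untreated (100 = full control).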

For assay [4], the system named is Phytophthora infestans. Nature of the assay: whole plant or invertebrate. Conditions: tomato late blight, spray the day before inoculation.
Assay [5] deals with Phytophthora infestans. Nature of the assay: whole plant or invertebrate. Conditions: tomato late blight; spray 17 h after inoculation; tested at 40 ppm.
Setting [6] is: compounds without asterisk (not 40 or 10 ppm).

Consider “2-[1-[(2,5-dimethylphenyl)acetyl]-4-piperidinyl]-N-methyl-N-[(1R)-1-phenylpropyl]-4-oxazolecarboxamide [Compound 154]”, for which the “Test E disease rating (100 = 100% disease control, 0 = no disease control)” value in assay [1] (setting [6]) is 0%. Moreover, the “Test B disease rating (100 = 100% disease control, 0 = no disease control)” value with Plasmopara viticola (setting [6]) is 20%. Further, in assay [2], the “Test A disease rating (100 = 100% disease control, 0 = no disease control)” value is 0%. For the same molecule, the “Test F disease rating (100 = 100% disease control, 0 = no disease control)” value in assay [3] turned out to be 95%. Besides, in the assay with Phytophthora infestans [4] (setting [6]), the “Test C disease rating (100 = 100% disease control, 0 = no disease control)” value turned out to be 0%.
As for “2-[1-[(3,5-diethyl-1H-pyrazol-1-yl)acetyl]-4-piperidinyl]-N-methyl-N-[(1R)-1,2,3,4-tetrahydro-1-naphthalenyl]-4-thiazolecarboxamide [Compound 209]”, the “Test E disease rating (100 = 100% disease control, 0 = no disease control)” value in assay [1] (setting [6]) came out at 0%. For the same molecule, in the assay with Plasmopara viticola (setting [6]), the “Test B disease rating (100 = 100% disease control, 0 = no disease control)” value is on record as 76%. Further, the “Test A disease rating (100 = 100% disease control, 0 = no disease control)” value in assay [2] came out at 100%. The “Test F disease rating (100 = 100% disease control, 0 = no disease control)” value in assay [3] was 99%. In addition, the “Test C disease rating (100 = 100% disease control, 0 = no disease control)” value with Phytophthora infestans [4] (setting [6]) came to 98%.
Taken in the same sequence, the figures for “2-[1-[[5-ethyl-3-(trifluoromethyl)-1H-pyrazol-1-yl]acetyl]-4-piperidinyl]-N-methyl-N-[(1R)-1,2,3,4-tetrahydro-1-naphthalenyl]-4-thiazolecarboxamide [Compound 208]” were 0%, 95%, 100%, 99% and 100%.
Regarding `Cc1cc(C(F)(F)F)nn1CC(=O)N1CCC(c2nc(C(=O)N(C)C3c4ccccc4CCC3(C)C)cs2)CC1` (centres unmarked) [Compound 236], the “Test E disease rating (100 = 100% disease control, 0 = no disease control)” value in assay [1] (setting [6]) and in assay [1] (tested at 40 ppm) was 0% each time. In addition, the figures for the “Test B disease rating (100 = 100% disease control, 0 = no disease control)” value in the assay with Plasmopara viticola (setting [6]) and in the assay on Plasmopara viticola (tested at 40 ppm) were 61% and 100%, respectively. In addition, the “Test A disease rating (100 = 100% disease control, 0 = no disease control)” value in assay [2] stood at 97%. For the same molecule, the “Test D disease rating (100 = 100% disease control, 0 = no disease control)” value with Phytophthora infestans [5] was 99%. Further, the results for the “Test C disease rating (100 = 100% disease control, 0 = no disease control)” value in the assay on Phytophthora infestans [4] (setting [6]) and in the assay on Phytophthora infestans [4] (tested at 40 ppm) were 62% and 100%, respectively.
`C[C@H](c1ccccc1)N(C)C(=O)c1csc(C2CCN(C(=O)Nc3cccc(C(F)(F)F)c3)CC2)n1` [compound 156]: the “Test E disease rating (100 = 100% disease control, 0 = no disease control)” value in assay [1] (setting [6]) was found to be 21%. Moreover, in assay [2], the “Test A disease rating (100 = 100% disease control, 0 = no disease control)” value is 100%. Further, the “Test F disease rating (100 = 100% disease control, 0 = no disease control)” value in assay [3] came to 100%. Besides, in the assay on Phytophthora infestans [4] (setting [6]), the “Test C disease rating (100 = 100% disease control, 0 = no disease control)” value is given as 62%.
On to “N-[(1R)-2,3-dihydro-1H-inden-1-yl]-N-methyl-2-[1-[[5-methyl-3-(trifluoromethyl)-1H-pyrazol-1-yl]acetyl]-4-piperidinyl]-4-thiazolecarboxamide [Compound 178]”, for which the “Test E disease rating (100 = 100% disease control, 0 = no disease control)” value in assay [1] (setting [6]) amounted to 0%. In the assay on Plasmopara viticola (setting [6]), the “Test B disease rating (100 = 100% disease control, 0 = no disease control)” value was 99%. Besides, the “Test A disease rating (100 = 100% disease control, 0 = no disease control)” value in assay [2] was 100%. Further, the “Test C disease rating (100 = 100% disease control, 0 = no disease control)” value in the assay with Phytophthora infestans [4] (setting [6]) is 100%.
Turning to “N-methyl-1-[1-[[5-methyl-3-(trifluoromethyl)-1H-pyrazol-1-yl]acetyl]-4-piperidinyl]-N-[(1R)-1,2,3,4-tetrahydro-1-naphthalenyl]-1H-pyrazole-4-carboxamide [Compound 233]”, the “Test E disease rating (100 = 100% disease control, 0 = no disease control)” value in assay [1] (setting [6]) stood at 29%. For the same molecule, the “Test B disease rating (100 = 100% disease control, 0 = no disease control)” value with Plasmopara viticola (setting [6]) was determined as 51%. The “Test A disease rating (100 = 100% disease control, 0 = no disease control)” value in assay [2] is given as 96%. In addition, in the assay on Phytophthora infestans [4] (setting [6]), the “Test C disease rating (100 = 100% disease control, 0 = no disease control)” value worked out at 91%.
Taken in the same sequence, the figures for “N-methyl-2-[1-[[5-methyl-3-(trifluoromethyl)-1H-pyrazol-1-yl]acetyl]-4-piperidinyl]-N-(1,2,3,4-tetrahydro-1-naphthalenyl)-4-thiazolecarboxamide [Compound 188]” were 86%, 6%, 90% and 29%.
Taken in the same sequence, the figures for “N-methyl-2-[1-[[5-methyl-3-(trifluoromethyl)-1H-pyrazol-1-yl]acetyl]-4-piperidinyl]-N-(1,2,3,4-tetrahydro-2-methyl-1-naphthalenyl)-4-thiazolecarboxamide [Compound 193]” were 21%, 20%, 93% and 31%.
Taken in the same sequence, the figures for “N-methyl-2-[1-[[5-methyl-3-(trifluoromethyl)-1H-pyrazol-1-yl]acetyl]-4-piperidinyl]-N-[(1R)-1-phenylethyl]-4-thiazolecarboxamide [Compound 70]” were 0%, 0%, 0% and 33%.
For “N-methyl-2-[1-[[5-methyl-3-(trifluoromethyl)-1H-pyrazol-1-yl]acetyl]-4-piperidinyl]-N-[(1R)-1-phenylpropyl]-4-oxazolecarboxamide [Compound 152]”, the “Test E disease rating (100 = 100% disease control, 0 = no disease control)” value in assay [1] (setting [6]) is 0%. Further, in the assay with Plasmopara viticola (setting [6]), the “Test B disease rating (100 = 100% disease control, 0 = no disease control)” value turned out to be 0%. The “Test A disease rating (100 = 100% disease control, 0 = no disease control)” value in assay [2] stood at 0%. Besides, the “Test C disease rating (100 = 100% disease control, 0 = no disease control)” value with Phytophthora infestans [4] (setting [6]) was determined as 0%.
Regarding “N-methyl-2-[1-[[5-methyl-3-(trifluoromethyl)-1H-pyrazol-1-yl]acetyl]-4-piperidinyl]-N-[(1R,2S)-1,2,3,4-tetrahydro-2-methyl-1-naphthalenyl]-4-thiazolecarboxamide [Compound 234]”, the “Test E disease rating (100 = 100% disease control, 0 = no disease control)” value in assay [1] (setting [6]) is 21%; in assay [1] (tested at 40 ppm), 0%. Moreover, the “Test B disease rating (100 = 100% disease control, 0 = no disease control)” value with Plasmopara viticola (setting [6]) and in the assay with Plasmopara viticola (tested at 40 ppm) was 100% in each case. The “Test A disease rating (100 = 100% disease control, 0 = no disease control)” value in assay [2] was found to be 100%. Moreover, in the assay with Phytophthora infestans [5], the “Test D disease rating (100 = 100% disease control, 0 = no disease control)” value is 99%. For the same molecule, the “Test C disease rating (100 = 100% disease control, 0 = no disease control)” value in the assay on Phytophthora infestans [4] (setting [6]) and with Phytophthora infestans [4] (tested at 40 ppm) was 100% each time.
As to “N-methyl-2-[1-[[5-methyl-3-(trifluoromethyl)-1H-pyrazol-1-yl]acetyl]-4-piperidinyl]-N-[(1R,4R)-1,2,3,4-tetrahydro-4-hydroxy-1-naphthalenyl]-4-thiazolecarboxamide [Compound 206]”, the “Test E disease rating (100 = 100% disease control, 0 = no disease control)” value in assay [1] (setting [6]) turned out to be 0%. For the same molecule, in the assay on Plasmopara viticola (setting [6]), the “Test B disease rating (100 = 100% disease control, 0 = no disease control)” value is 5%. The “Test A disease rating (100 = 100% disease control, 0 = no disease control)” value in assay [2] came out at 99%. For the same molecule, in the assay on Phytophthora infestans [4] (setting [6]), the “Test C disease rating (100 = 100% disease control, 0 = no disease control)” value is listed as 31%.
Taken in the same sequence, the figures for “N-methyl-2-[1-[[5-methyl-3-(trifluoromethyl)-1H-pyrazol-1-yl]acetyl]-4-piperidinyl]-N-[(1R,4S)-1,2,3,4-tetrahydro-4-hydroxy-1-naphthalenyl]-4-thiazolecarboxamide [Compound 191]” were 0%, 17%, 97% and 90%.
Taken in the same sequence, the figures for “N-methyl-2-[4-[[5-methyl-3-(trifluoromethyl)-1H-pyrazol-1-yl]acetyl]-1-piperazinyl]-N-[(1R)-1,2,3,4-tetrahydro-1-naphthalenyl]-4-thiazolecarboxamide [Compound 220]” were 0%, 0%, 0% and 0%.
